Read-outs that look alike come from different tables or passages of the source.
Molecular target: T1, ACCase (chloroplastic acetyl coenzyme A carboxylase)
T1 construct: plastid and cytosolic forms not separated; S biotype has Arg1789, Met2065, Gly2067, Val2077
Assay: NaH14CO3 incorporation into acid-stable product (malonyl-CoA)
Format: biochemical, Cynosurus echinatus
Details: 5 mM acetyl-CoA, 1.5 mM ATP, 5 mM MgCl2, 15 mM bicarbonate, pH 8.3, 34°C, read-out: I50
Description: NaH14CO3 incorporation into acid-stable product (malonyl-CoA) on ACCase (chloroplastic acetyl coenzyme A carboxylase)

Row | Structure (SMILES) | IC50 (R biotype, stated gain) [µM] | IC50 (S biotype) [µM]
1 | CC(Oc1ccc(Oc2nc3ccc(Cl)cc3o2)cc1)C(=O)O (racemic) [Fenoxaprop] | 24.2 | 1.58
2 | CC(Oc1ccc(Oc2ccc(Cl)cc2Cl)cc1)C(=O)O (stereo not drawn) [Diclofop] | 63.5 | 4.53
3 | C[C@@H](Oc1ccc(Oc2ccc(C#N)cc2F)cc1)C(=O)O [Cihalofop] | 70.8 | 10.2
4 | CCCC(=NOCC)C1=C(O)CC(C2CCCSC2)CC1=O (stereo not drawn) [Cycloxidim] | 7.89 | 2.5
5 | CCc1cc(C)cc(CC)c1-c1c(OC(=O)C(C)(C)C)n2n(c1=O)CCOCC2 [Pinoxaden] | 9.1 | 0.39
6 | CCCC(=NOCC)C1=C(O)CC(CC(C)SCC)CC1=O (stereo not drawn) [Setoxidim] | 3500 | 800

Source: PMC4826872, “Underlying Resistance Mechanisms in the Cynosurus echinatus Biotype to Acetyl CoA Carboxylase-Inhibiting Herbicides” (Frontiers in Plant Science, 2016)
